# Test results published in publication PMC9996794 (ACS Omega, 2023).
# Columns and labels:
# [1] = cited from earlier work
# [2] = cited from earlier work; remark: listed apart in the source
# [3] = Thermogravimetric analysis; assay type: physicochemical; conditions: TGA, nitrogen, 10 °C·min^–1
# [4] = Critical micelle concentration from conductivity measurements; assay type: physicochemical; conditions: 25 °C
# [5] = Solubility in water or ethanol by the conductivity method; conditions: 25 °C
# [6] = test system: L929 cells; assay: Cytotoxicity, MTT assay; assay type: cell-based; conditions: read-out: IC50 (best-fit), 48 h (method b31 says 24 h)
# [7] = test system: bovine serum albumin (BSA); conditions: cited from earlier work
# [8] = Pharmacokinetic experiments in mice; assay type: in vivo; conditions: printed as 'higher than that of naproxen'
Compound,beginning weight loss temperature [3] [°C],critical micelle concentration ([4]; ethanol),critical micelle concentration ([4]; water),mass of solute per 100 g of solvent ([5]; ethanol) [g·100 g^–1],mass of solute per 100 g of solvent ([5]; water) [g·100 g^–1],cmax [8] [mg·L^–1],improvement of dissolution rates compared with the original naproxen [1],increase of permeation of naproxen through the skin [2],IC50 [6] [µM],binding affinity for BSA relative to parent naproxen [7]
"CCCC[P+](CCCC)(CCCC)CCCC.COc1ccc2cc(C(C)C(=O)[O-])ccc2c1 [[Tbp][Nap], tetrabutyl phosphonium naproxen]",,,,,,,up to 1000 times,,,
CC(C)OC(=O)[C@@H]1CCCN1.COc1ccc2cc([C@H](C)C(=O)O)ccc2c1 [L-proline isopropyl ester naproxen],,,,,,,,almost four times,,
CC(C)OC(=O)[C@@H](N)C(C)C.COc1ccc2cc([C@H](C)C(=O)O)ccc2c1 [L-valine isopropyl ester naproxen],,,,,,,,,,about 1 order of magnitude lower

# Continued, in another order:
beginning weight loss temperature [3] [°C],critical micelle concentration ([4]; ethanol),critical micelle concentration ([4]; water),mass of solute per 100 g of solvent ([5]; ethanol) [g·100 g^–1],mass of solute per 100 g of solvent ([5]; water) [g·100 g^–1],cmax [8] [mg·L^–1],Compound,improvement of dissolution rates compared with the original naproxen [1],increase of permeation of naproxen through the skin [2],IC50 [6] [µM],binding affinity for BSA relative to parent naproxen [7]
218.79,4.89 × 10^–6 mol·L^–1,5.68 × 10^–5 mol·L^–1,82.00,112.56,,"CCCCCCCCn1cc[n+](C)c1.COc1ccc2cc(C(C)C(=O)[O-])ccc2c1 (stereo not shown) [[Omim][Nap], 1-octyl-3-methylimidazole naproxen]",,,174,
147.05,6.25 × 10^–6 mol·L^–1,3.05 × 10^–5 mol·L^–1,97.61,61.6251,,"CCCCCCCCCCCCCC[N+](C)(C)Cc1ccccc1.COc1ccc2cc([C@H](C)C(=O)[O-])ccc2c1 [[Ben][Nap], tetradecyldimethylbenzyl ammonium naproxen]",,,111,
171.93,3.48 × 10^–6 mol·L^–1,3.75 × 10^–5 mol·L^–1,70.23,124.51,23.051,"COc1ccc2cc(C(C)C(=O)[O-])ccc2c1.C[N+](C)(C)CCO (stereo not shown) [[Ch][Nap], choline naproxen]",,,783,
